Common to all, as to format: in vivo
Test [1] relates to spring barley, HORVS Montoya. The test is described as follows: Seed treatment with safener; post-emergence herbicide, crop damage. The conditions noted are these: for HER effect + SAF / Reduction [%] / Reduction [Difference]: mefenpyr-diethyl 0.5 g a.i./kg seed. The source says: (§1) For safener seed treatment trials, sufficient seed amounts of the respective crops (spring wheat (TRZAS); spring barley (HORVS)) were weighed into screw cap glass bottles with a minimum volume trice of the seeds.
(§2) As a first step, specified safeners formulated as wettable powder (WP) or wettable granules (WG) were weighed out for the required dosages (g a.i./kg seed), corresponding to the seed amounts. The safener amounts were mixed with a coloured slurry blind formulation type, prediluted with milk at 3.5% fat rate (25 mgs slurry formulation plus 2 ml milk per 10 grams of seed). A tube roller was used for coating. The solutions were gradually pipetted each on the rotating seeds followed by coating for min. 3 hours until all liquid had been soaked up by the seeds. Thereafter, the coated seeds were put flat on open trays for drying over night at room temperature.
(§3) Treated seeds were then placed into pots (7 cm diameter) on the surface of sandy loam, pressed down, flat covered with additional soil and finally covered with sandy soil, also pressed down, watered, and kept under good growth conditions in a greenhouse, until the plants had reached 2-leaf-stage (BBCH 12).
(§4) At that stage, post-emergence application of the specified herbicides was done on:
(§5) a) pot sets containing plants with safener-coated seeds as described above,
(§6) b) as a reference, pot sets of plants without seed treatment.
(§7) The herbicides were formulated as wettable powder (WP). Equivalent to the spray area, compound amounts were weighed out and diluted related to the water application rate (300 l/ha) to an aqueous suspension plus additive (1 l/ha MERO). Dosage related equivalents were conventionally sprayed on trays with the potted plants.
(§8) After application, the test plants were kept under good growth conditions in a greenhouse.
(§9) Assessment timings were 10 and 21 days after treatment (DAT) with the herbicide, by visual scoring of the crop damage in % (comparison of untreated with treated plants, either sprayed only with herbicide or with herbicide on plants with treated seeds).

Test [2] concerns spring wheat, TRZAS Triso. The description is as above. The conditions noted are these: for HER effect + SAF [%] (crop damage) / Reduction [%] / Reduction [Difference]: mefenpyr-diethyl 0.5 g a.i./kg seed; for HER effect [%] (crop damage, herbicide without safener): no safener.
Excerpt: as §1, §2, §3, §4, §5, §6, §7, §8, §9

In test [3] the test system is spring barley, HORVS Montoya. The test is described as follows: Tank-mix; post-emergence: crop damage by herbicide with/without safener mefenpyr-diethyl. The procedure: (§10) Seeds of crops (spring wheat, TRZAS; spring barley, HORVS; maize, ZEAMA) were placed in sandy loam soil in peat pots, covered with soil and cultivated in a greenhouse under good growth conditions. Two to three weeks after sowing, the test plants were treated at the 1 to 3-leaf stage. The herbicide/safener active compound combinations according to the invention, formulated as wettable powders or emulsion concentrates, and, in parallel tests, the correspondingly formulated individual active compounds were sprayed onto the green parts of the plants in various dosages using an amount of water of 300 l/ha (converted).
(§11) The pots were returned under good growing conditions in a glasshouse and a visual assessment of herbicidal effects was made at intervals from 1 to 3 weeks after herbicide application (DAT=days after treatment). Assessment was on a percentage basis in comparison with untreated control plants (0%=no injury, 100%=complete kill).

The subject of test [4] is spring wheat, TRZAS Triso. The test is described as above. The conditions noted are these: 10 DAT. The procedure:
as §10, §11

The mark [5] stands for this setting: HER 24 g a.i./ha post-emergence, 10 DAT.
The mark [6] stands for this setting: HER 6 g a.i./ha + mefenpyr-diethyl 50 g a.i./ha, 10 DAT.
[7] abbreviates: HER 24 g a.i./ha + mefenpyr-diethyl 100 g a.i./ha, 10 DAT.
[8] abbreviates: HER 6 g a.i./ha + mefenpyr-diethyl 50 g a.i./ha.
Where [9] appears, read: HER 24 g a.i./ha + mefenpyr-diethyl 100 g a.i./ha.
Setting [10] is: HER 2 g a.i./ha post-emergence, 21 DAT.
The mark [11] stands for this setting: HER 32 g a.i./ha post-emergence, 21 DAT.
The mark [12] stands for this setting: HER 2 g a.i./ha + mefenpyr-diethyl 50 g a.i./ha, 21 DAT.
[13] abbreviates: HER 2 g a.i./ha + mefenpyr-diethyl 50 g a.i./ha.

As to `CC1(C(=O)NC2COC(C(=O)OCc3ccccc3)C2)CC(c2cccc(F)c2)=NO1` (mixture of isomers) [Example 1.79], the “HER effect + SAF” value in test [1] (setting [5]) is recorded as 40%; in test [3] (setting [6]), 0%; in test [3] (setting [7]), 0%; in test [4] (setting [8]) it was 0%; in test [4] (setting [9]), 10%. For the same molecule, the “Reduction [%]” value in test [1] (setting [5]) is 43%; in test [2] (10 DAT, HER dose 24 g a.i./ha), 40%; in test [3] (setting [6]), 100%; in test [3] (setting [7]) it was 100%; in test [4] (setting [8]) it was 100%; in test [4] (setting [9]), 80%. Further, the “Reduction [Difference]” value in test [1] (setting [5]) stood at 30; in test [2] (10 DAT, HER dose 24 g a.i./ha) it was 20; in test [3] (setting [6]) it was 20; in test [3] (setting [7]) it was 70; in test [4] (setting [8]), 30; in test [4] (setting [9]), 40. Besides, the HER effect in test [1] (herbicide alone 24 g a.i./ha post-emergence, 10 DAT) stood at 70%; in test [3] (herbicide alone 6 g a.i./ha, 10 DAT) it was 20%; in test [3] (herbicide alone 24 g a.i./ha, 10 DAT), 70%; in test [4] (herbicide alone 6 g a.i./ha), 30%; in test [4] (herbicide alone 24 g a.i./ha), 50%. For the same molecule, the “HER effect + SAF [%] (crop damage)” value in test [2] (10 DAT, HER dose 24 g a.i./ha) is given as 30%. Besides, the “HER effect [%] (crop damage, herbicide without safener)” value in test [2] (10 DAT, HER dose 24 g a.i./ha) was 50%.
Take `COCCOC(=O)C1C=CC(NC(=O)C2(C)CC(c3cc(Cl)cc(C#N)c3)=NO2)C1` (stereo not drawn) [Example 1.5]: the “HER effect + SAF” value in test [1] (setting [10]) was 0%; in test [1] (setting [11]) it was 60%; in test [3] (setting [12]), 0%; in test [4] (setting [13]), 0%. Further, the “Reduction [%]” value in test [1] (setting [10]) amounted to 100%; in test [1] (setting [11]) it was 25%; in test [2] (21 DAT, HER dose 8 g a.i./ha), 89%; in test [2] (21 DAT, HER dose 32 g a.i./ha) it was 68%; in test [3] (setting [12]), 100%; in test [4] (setting [13]), 100%. Further, the “Reduction [Difference]” value in test [1] (setting [10]) is reported as 20; in test [1] (setting [11]), 20; in test [2] (21 DAT, HER dose 8 g a.i./ha), 80; in test [2] (21 DAT, HER dose 32 g a.i./ha), 65; in test [3] (setting [12]), 20; in test [4] (setting [13]), 50. The HER effect in test [1] (herbicide alone 2 g a.i./ha post-emergence, 21 DAT) was 20%; in test [1] (herbicide alone 32 g a.i./ha post-emergence, 21 DAT), 80%; in test [3] (herbicide alone 2 g a.i./ha, 21 DAT) it was 20%; in test [4] (herbicide alone 2 g a.i./ha), 50%. For the same molecule, the “HER effect + SAF [%] (crop damage)” value in test [2] (21 DAT, HER dose 8 g a.i./ha) turned out to be 10%; in test [2] (21 DAT, HER dose 32 g a.i./ha), 30%. In addition, the “HER effect [%] (crop damage, herbicide without safener)” value in test [2] (21 DAT, HER dose 8 g a.i./ha) is on record as 90%; in test [2] (21 DAT, HER dose 32 g a.i./ha), 95%.

Values taken from US20230200390A1, “SELECTIVE HERBICIDES BASED ON SUBSTITUTED ISOXAZOLIN CARBOXAMIDES AND MEFENPYR-DIETHYL” (BAYER AKTIENGESELLSCHAFT, priority 2020, published 2023).
